Test [1] deals with T1, m-aconitase (Sus scrofa, UniProt P16276).
T1 construct: gene ACO2
T1 sequence (P16276 28-781): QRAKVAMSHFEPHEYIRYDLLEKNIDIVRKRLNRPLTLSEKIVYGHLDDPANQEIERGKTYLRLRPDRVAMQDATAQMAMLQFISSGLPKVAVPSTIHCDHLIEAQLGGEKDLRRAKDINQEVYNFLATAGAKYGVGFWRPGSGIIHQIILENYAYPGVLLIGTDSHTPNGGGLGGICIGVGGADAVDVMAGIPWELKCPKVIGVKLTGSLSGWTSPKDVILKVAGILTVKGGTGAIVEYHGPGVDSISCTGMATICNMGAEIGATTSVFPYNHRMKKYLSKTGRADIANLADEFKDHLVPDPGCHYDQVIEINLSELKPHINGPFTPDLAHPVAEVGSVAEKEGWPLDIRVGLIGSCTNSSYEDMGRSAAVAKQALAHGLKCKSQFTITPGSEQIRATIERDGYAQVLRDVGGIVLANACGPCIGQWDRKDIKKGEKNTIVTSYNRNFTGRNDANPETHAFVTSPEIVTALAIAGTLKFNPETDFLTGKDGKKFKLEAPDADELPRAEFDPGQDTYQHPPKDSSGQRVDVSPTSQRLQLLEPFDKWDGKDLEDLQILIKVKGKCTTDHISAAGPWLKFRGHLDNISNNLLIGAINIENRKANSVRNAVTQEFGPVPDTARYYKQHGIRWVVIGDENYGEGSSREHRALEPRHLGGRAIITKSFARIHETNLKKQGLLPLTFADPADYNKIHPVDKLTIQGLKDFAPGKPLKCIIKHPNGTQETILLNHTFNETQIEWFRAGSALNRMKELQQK
Nature of the test: aconitase/isocitrate dehydrogenase coupled assay, NADPH absorbance at […] nm. In kind it is biochemical. Particulars: pH 8.0, 25 °C, 20 mM citrate; 10 min pre-incubation, no H2O2; activator, upper limit (up to about).

Test [2] concerns the target T1, m-aconitase. The test is described as above. In kind it is biochemical. The following applies: pH 8.0, 25 °C, 20 mM citrate; 10 min pre-incubation, no H2O2; activator, upper limit (up to about). The source holds these as a separate data set.
Test [3] addresses T1, m-aconitase. The test is described as above. The following applies: pH 8.0, 25 °C, 20 mM citrate; 10 min pre-incubation, no H2O2; activator. It is filed as biochemical.
A further test has as its system T2, DWM-aconitase.
T2 construct: gene ACO
The following applies: 100 mM Tris-HCl pH 8.0, 0.1% Triton X-100, 25 °C, 1 mM NADP+, 5 mM MnCl2; citrate 0.5–20 mM; lysed mitochondria.

For orientation: Km means the substrate concentration at which the rate is half of its maximum.

As for `O=c1c(O)c(-c2ccc(O)c(O)c2)oc2cc(O)cc(O)c12` [quercetin], at m-aconitase [1], the “% activation at 150 μM” value is ~ 20%.

In the case of `COc1cc(/C=C/C(=O)O)ccc1O` [ferulic acid], the “% activation at 100-150 μM” value on m-aconitase [2] is reported as ~ 10%. Consider `O=c1cc(-c2ccc(O)cc2)oc2cc(O)cc(O)c12` [apigenin], for which, on m-aconitase [3], the “% activation at 50-150 μM” value is ~ 10%. Take `O=C(O)CC(O)(CC(=O)O)C(=O)O` [citrate]: in the test on DWM-aconitase, the Michaelis constant (Km) came to 4.8 ± 0.9 mM.

These data come from article PMC7763331, “First Evidence of a Protective Effect of Plant Bioactive Compounds against H2O2-Induced Aconitase Damage in Durum Wheat Mitochondria” (Antioxidants, 2020).
